From US20240285545A1, “NANOSUSPENSION FORMULATION FOR TREATMENT OF PULMONARY FIBROSIS” (The Johns Hopkins University, priority 2023, published 2024)

Legend:
[1] = free-base form; cited from earlier work
[2] = oral administration of 100 mg/kg NTB, prior studies; cited from earlier work
silicotic animals = settings: daily oral 100 mg/kg; model with lower silica dose (2.5 mg/mouse); cited from earlier work
[3] = test system: silica-induced pulmonary fibrosis model; assay: Therapeutic efficacy in silica-induced pulmonary fibrosis model (histology, lung mechanics); assay type: in vivo, C57BL/6 mice; settings: oral 100 mg/kg daily
Procedure: The Study design for assessing the therapeutic efficacy of NTB-NS in a preclinical silica-induced pulmonary fibrosis model is shown in FIG. 7. The silicosis model was established by a single intratracheal instillation of silica microparticles (800 mg/kg) into the lungs of C57BL/6 mice (Silicosis); in parallel, healthy control animals received saline in an identical manner (Control). Fifteen days after the silica instillation, animals were randomly assigned to different groups to receive oral daily doses of NTB-Esy at 100 mg/kg or intratracheal NTB-NS at a NTB dose of 0.1 or 1 mg/kg every 72 hours. Lungs were harvested for analysis at Day 34. IT: intratracheal; OR: oral. […]
For lung mechanics analysis at the end of treatments, mice were sedated with diazepam (1 mg/kg, intraperitoneal), anesthetized with thiopenthal sodium (20 mg/kg, intraperitoneal), tracheotomized, paralyzed with vecuronium bromide (0.005 mg/kg, intravenous), and ventilated with a constant flow ventilator (Samay VR 15, Montevideo, Uruguay) using the following parameters: frequency 100 breaths/min; tidal volume 0.2 mL; fraction of inspired oxygen 0.21. […] Data were analyzed using ANADAT data analysis software (RHT-InfoData Inc., Montreal Canada).
For histological analysis, left lung tissues were fixed with 4% paraformaldehyde and embedded in paraffin blocks. […] The granuloma fraction was calculated as follows: […]

Row | Compound | Aqueous solubility [1] | Amount of drug available in mouse lungs [2] | Fibrotic score in the lungs of silicotic animals (silicotic animals) | Area of collagen deposition in alveolar septa versus untreated silicotic animals [3] | Static lung elastance (Est,L) [3]
1 | COC(=O)c1ccc2c(c1)NC(=O)/C2=C(\Nc1ccc(N(C)C(=O)CN2CCN(C)CC2)cc1)c1ccccc1 [NTB, Nintedanib] | low aqueous solubility | approximately 2.5 μg | significantly reduces | – | –
2 | CCS(=O)(=O)O.COC(=O)c1ccc2c(c1)NC(=O)/C2=C(\Nc1ccc(N(C)C(=O)CN2CCN(C)CC2)cc1)c1ccccc1 [NTB-Esy, NTB Esylate] | – | – | – | unlike 100 mg/kg oral NTB-Esy, significantly reduced | unlike oral NTB-Esy (100 mg/kg, daily), significantly decreased
